“Also recorded” adds a separate entry of the source. *1 amine or outer side, *2 acyl side, *3 side chain or, on linkers, in order; H or OH if unused. Where a SMILES comes first, the peptide text is derived from it. Bridges are numbered along the chain shown (N, C = ends). [ ]: non-standard residue; d: D form. Trp(2-yl) = O=C([C@H](Cc1c([*:3])[nH]c2ccccc12)N[*:1])[*:2]; Leu(4R-OH,5-OH) = C[C@](O)(CO)C[C@H](N)C(=O)O; cisHyp = O=C(O)[C@@H]1C[C@H](O)CN1
Legend:
bone resorption = settings: by inhibiting calcium release; cited from earlier work
[1] = test system: actin cytoskeleton in bovine aortic endothelial cells (BAEc); test: effect on the actin cytoskeleton (stress fibers) in living BAEc; format: cell-based
Source text: The inventors' initial interest in studying these C-glucosidic ellagitannins stems from the premise that the highly pre-organized medium-sized ring-containing multiple-phenol array featured by such natural products should be structurally well-suited to interfere with the construction of protein-made cellular architectures, on top of the list of which are actin filaments and microtubules. The inventors thus decided to probe the latter hypothesis by first examining the effect of a selection of four C-glucosidic ellagitannins on the actin cytoskeleton in living cells. […] The selected compounds were the two most abundant C-glucosidic ellagitannins found in the heartwood of oak species, vescalagin and its C-1 epimer castalagin, and their corresponding two minor congeners, vescalin and castalin, both lacking the hexahydroxydiphenoyl (HHDP) unit at positions 4 and 6 of the glucose core (FIG. 1). The inventors used bovine aortic endothelial cells (BAEc), a well-characterized type of primary cells. Any of the four ellagitannins used at 50 μM rapidly provoked the disappearance of the internal stress fiber network observed in control cells.

microtubule network = test: alteration of the microtubule network in treated cells; format: cell-based
osteoclast [2] = settings: cited from earlier work
actin (G-actin/F-actin) = test: in vitro actin polymerization, F-actin (pellet) versus G-actin (supernatant) at steady state; format: biochemical; settings: for G-actin/F-actin ratio at steady state: vescalagin 100 μM, cytochalasin D 4 μM, phalloidin 2 μM
Description: (§1) FIG. 4. A. Actin polymerization at its steady state in both permissive and non-permissive conditions was continued (30 min) in the presence of either alexa633-phalloidin or vescalagin-FITC. […] B. This effect is dose-dependent. C.
In the same way, quantifying the amount of F-actin (pellet) versus that of G-actin (supernatant) at the steady state was achieved by Western blot after high-speed centrifugation of samples treated with either vescalagin (100 μM), cytochalasin D (4 μM) or phalloidin (2 μM). […] The same effect was observed when using the vescalagin-FITC conjugate (FIG. 4C).

BAEc [3] = test: cellular morphology and mitosis, light microscopy; format: cell-based, bovine
Source text: (§2) Vescalagin-induced dissolution of stress fibers affected cellular morphology and, eventually, viability. […] Functional consequences on cell behavior translated into impaired endothelial cell wound repair capacity. […] Overall, this ensemble of experimental data illustrates the rapid and sustained effects of vescalagin on cell behavior.

BAEc [4] = test: propidium iodide (PI) staining, cytotoxicity; format: cell-based, bovine; settings: for cytotoxicity by PI staining: 50 μM
Source text: as §2

F-actin [5] = test: phalloidin binding to vescalagin-decorated F-actin (binding site)
[6] = test system: mechanically injured endothelium; test: endothelial cell wound repair; format: cell-based, bovine
Source text: as §2

actin cytoskeleton = test: reversibility of cytoskeletal alterations by washing out; format: cell-based
Source text: The vescalagin-induced F-actin disrupting effect seen in BAEc was also observed in fibroblast cells (baby hamster kidney cells, BHK), which also express β-actin as the main actin isoform, as well as in smooth muscle cells (A7r5), which in contrast predominantly express α-actin.
It rapidly enters cells, and this despite its high hydrophilicity. Its dose-dependent effects on the actin cytoskeleton relies on its interaction with F-actin without any perturbation of the microtubule network. […] The results found by the inventors are consistent with a mode of action through which the binding of vescalagin occurs along the length of the actin filament, probably at the protein-protein interface of the so-polymerized actin supramolecular association. The presence of two analogous polyhydroxylated arene motifs (i.e., the NHTP and HHDP units, see FIG. 1) likely constitutes the key structural feature that enables vescalagin to wind F-actin into balls by engaging it through multiple intra- and/or intermolecular contacts. […] Future studies will be devoted to the elucidation of the vescalagin-actin interaction at the molecular level and to the comparative evaluation of the anti-actin effects of the other C-glucosidic ellagitannins initially screened herein. Moreover, the SPR method the inventors developed using a biotinylated vescalagin conjugate to discriminate the binding of vescalagin to F- versus G-actin confirms the value of the technique for the study of polyphenol-protein interactions. Finally, the inventors have to recall that oak-derived C-glucosidic ellagitannins, including vescalagin, are present in wines as a result of their aging in oak-made barrels.

[7] = test system: podosomes in bovine aortic endothelial cells (BAEc); test: podosome formation in TGF-β stimulated BAEc; format: cell-based; settings: for inhibition of podosome formation: compound added from the beginning of the TGF-β stimulation (24 h) versus last hour
Description: FIG. 7. Dose responses of endothelial cells following vescalagin or vescalin treatment. BAEc were incubated for 24 hours with TGF-β (which stimulates formation of podosomes), and different concentrations of vescalagin or vescalin were added either from the beginning of the TGF-β stimulation, or during the last hour of stimulation. Cells were then fixed and treated for immunofluorescence analysis. Podosomes were visualized by double staining using phalloidin (a F-actin marker) and cortactin (a podosome marker). The percentage of total cells showing podosomes was then quantified and compared to the control (cells incubated with TGF-β only). A. BAEc were stimulated for 24 hours with TGF-β, and vescalagin or vescalin was added during the last hour of stimulation. B. BAEc were stimulated for 24 hours with TGF-β, and vescalagin or vescalin was added from the beginning of the TGF-β stimulation.
In this assay, bovine aortic endothelial cells (BAEc) were used. These cells form podosomes following a few hours of incubation with TGF-β. Cells were fixed after 24 hours of stimulation. Two protocols were tested. In the first protocol, cells were stimulated for 24 hours with TGF-β, and vescalagin or vescalin was added during the last hour of stimulation (FIG. 7A). In the second protocol, cells were stimulated for 24 hours with TGF-β, and vescalagin or vescalin was added from the beginning of the TGF-β stimulation (FIG. 7B). In both cases, cells were then fixed and treated for immunofluorescence analysis. Podosomes were visualized by double staining using phalloidin (a F-actin marker) and cortactin (a podosome marker). The percentage of total cells showing podosomes was then quantified and compared to the control (cells incubated with TGF-β only) (FIGS. 7A and 7B).

actin-GFP in BAEc = test: live imaging and FRAP on actin-GFP expressing BAEc; format: cell-based, bovine; settings: 100 μM
Description: FIG. 2. Live imaging of BAEc expressing actin-GFP were subjected to FRAP in the absence or presence of vescalagin (100 μM). A. A boxed region (200×100 pixel square) was photobleached [before (t 0″), immediately after (t 38″) and after photobleaching (t 98″)]; and normalized fluorescence intensity in the boxed region is shown for the entire duration of the FRAP experiment. […] B. Quantitation of the results showing the immobile fraction as calculated from the difference between pre- and post-photobleaching intensities (n=6).
Destabilization of the stress fibers was visualised by the progressive loss of filamentous staining, concomitantly with cell retraction as observed in phase contrast. Noticeably, thick F-actin bundles were maintained. To detect and unveil the internal dynamics of these apparently immobile F-actin bundles, the inventors performed a fluorescence recovery after photobleaching (FRAP) assay on actin-GFP expressing BAEc in the absence or presence of vescalagin (FIG. 2). […] From these experiments, the inventors conclude that vescalagin affects both thin and thick actin fibers, F-actin bundles made of packed actin filaments being less vulnerable to the action of vescalagin than the single filament dendritic meshwork at the cell periphery.

F-actin [8] = test: in vitro actin polymerization, high-speed centrifugation, stained pellet; format: binding; settings: 30 min at steady state
Description: as §1
To explore whether or not the interaction between vescalagin and actin was direct, the inventors set up an in vitro assay based on actin polymerization from a solution of Ca^2+-actin-ATP monomers. Spontaneous polymerization occurs when Ca^2+ is replaced by Mg^2+ provided by the F-actin buffer. The inventors performed high-speed centrifugation of the samples to separate the neo-formed polymers from the monomers to discriminate binding of vescalagin to either F-actin, G-actin or both. To visualize these presumptive molecular associations, the inventors used again the vescalagin-bearing fluoprobe and a fluorescent Alexa633-phalloidin to stain F-actin. Actin polymerization was carried out until it reached its steady state in both permissive and non-permissive conditions (i.e., in the presence or absence of Mg^2+-containing F-buffer). The experiment was then continued for 30 min in the presence of either vescalagin-FITC conjugate or Alexa633-phalloidin, and the formation of actin polymers was then assessed by high-speed centrifugation.

osteoclast [9] = settings: cited from earlier work; remark: listed apart in the source

Compound: O=C(OC1C(OC(=O)c2cc(O)c(O)c(O)c2Oc2cc3c(c(O)c2O)-c2c(cc(O)c(O)c2O)C(=O)OC(C2OC(=O)c4cc(O)c(O)c(O)c4-c4c(cc(O)c(O)c4O)C(=O)OCC2O)C(C(O)c2c(O)cc4c(c2O)CC(O)C(c2ccc(O)c(O)c2)O4)OC3=O)C(O)OC2COC(=O)c3cc(O)c(O)c(O)c3-c3c(cc(O)c(O)c3O)C(=O)OC21)c1cc(O)c(O)c(O)c1 (stereo not shown) [camelliatannin D]
- bone resorption (bone resorption): potentially inhibits bone resorption

Compound: C=C1[C@@H](C)[C@H]2[C@H](Cc3ccccc3)NC(=O)[C@]23[C@H](OC(C)=O)/C=C/[C@@](C)(O)C(=O)[C@@H](C)C/C=C/[C@H]3[C@@H]1O [cytochalasin D, reference compound]
- effect on actin configuration (stress fibers) ([1]; BAEc, cytochalasin D comparison): also effective
- alteration of the microtubule network (microtubule network): no alteration of the microtubule network

Compound: O=C1O[C@H]2[C@H](O)[C@@H](OC(=O)c3cc(O)c(O)c4c3[C@@H]3C1=CC(=O)C(O)(O)C3(O)O4)[C@H](OC(=O)c1cc(O)c(O)c(O)c1)O[C@@H]2CO (stereo partly shown) [furosin]
- osteoclast differentiation and function (osteoclast [2]): inhibitory effect

Compound: C[C@@H]1NC(=O)[C@H](C[C@@](C)(O)CO)NC(=O)[C@@H]2Cc3c([nH]c4ccccc34)SC[C@H](NC(=O)[C@@H]([C@H](C)O)NC1=O)C(=O)N1C[C@@H](O)C[C@H]1C(=O)N[C@@H](C)C(=O)N2 [phalloidin, reference compound] (cyclo(A[dT]C[cisHyp]A[Trp(2-yl)][Leu(4R-OH,5-OH)]); thioether 3-6)
- G-actin/F-actin ratio at steady state (actin (G-actin/F-actin)): marked depletion of G-actin

Compound: O=C1OCC2OC(=O)c3cc(O)c(O)c(O)c3-c3c(O)c(O)c(O)c4c3C(=O)OC(C2OC(=O)c2cc(O)c(O)c(O)c2-c2c1cc(O)c(O)c2O)C1OC(=O)c2c-4c(O)c(O)c(O)c2C1O (stereo not shown) [vescalagin]
- mitosis (BAEc [3]; 50 μM): still observed
- mitosis (BAEc [3]; 100 μM): impaired
- cell morphology (BAEc [3]; range of concentrations and incubation times applied): changed their morphology from a well spread to a more retracted appearance
- cytotoxicity by PI staining (BAEc [4]; 6 h): no cytotoxicity
- cytotoxicity by PI staining (BAEc [4]; 24 h): no cytotoxicity
- cell death (apoptotic nuclei) (BAEc [4]; 100 μM, 24 h): irreversible commitment to cell death; also recorded: presence of apoptotic nuclei
- binding site on F-actin relative to phalloidin (F-actin [5]): does not bind at the same site(s) as phalloidin
- relative activity within the series evaluated ([1]; four C-glucosidic ellagitannins): most active compound of the series
- serum-stimulated healing of mechanically injured endothelium ([6]; 20 μM): reduced by about half
- cell viability ([6]; 100 μM, 6 h): still compatible with the maintenance of cell viability
- repopulation of the denudated area ([6]; 100 μM, 6 h): remained virtually unpopulated
- reversibility of actin cytoskeleton alterations by washing (actin cytoskeleton; treatment 1 hour, 100 μM): reversible by washing
- reversibility of actin cytoskeleton alterations by washing (actin cytoskeleton; treatment 24 hours, 50 μM): reversible by washing
- reversal of cytoskeletal alterations by washing out with fresh medium (actin cytoskeleton; within 1 h): completely reversed
- reversibility of effects on the actin cytoskeleton (actin cytoskeleton; within 1 h of treatment, up to 100 μM): fully reversible
- inhibition of podosome formation (percentage of cells showing podosomes) ([7]; 24 h TGF-β, vescalagin versus vescalin): stronger inhibitor activity than vescalin
- inhibition of podosome formation [7]: less pronounced effects
- actin-GFP distribution, live imaging (actin-GFP in BAEc): immediate alteration of actin-GFP distribution at cell margin
- immobile fraction of actin (FRAP) (actin-GFP in BAEc; n=6): increases the immobile fraction of actin
- alteration of the microtubule network (microtubule network): no alteration of the microtubule network
- dose dependence of the G-actin depletion (actin (G-actin/F-actin)): dose-dependent manner
- G-actin/F-actin ratio at steady state (actin (G-actin/F-actin)): marked depletion of G-actin

Compound: O=C1O[C@H](CO)[C@@H](O)[C@@H]2OC(=O)c3c(c(O)c(O)c(O)c3-c3c(O)c(O)c(O)c4c3C(=O)O[C@H]2[C@@H]4O)-c2c1cc(O)c(O)c2O [vescalin]
- inhibition of podosome formation [7]: less pronounced effects

Compound: fluorescein isothiocyanate [FITC]
- binding to F-actin (stained pellet after high-speed centrifugation) (F-actin [8]): no F-actin was detected

Compound: roburin C
- inhibition of osteoclast differentiation and function (osteoclast [9]): highest potency

Compound: roburin D
- inhibition of osteoclast differentiation and function (osteoclast [9]): highest potency

From US20130324595A1, “C-GLUCOSIDIC ELLAGITANNIN COMPOUNDS FOR USE FOR ALTERING THE SUPRAMOLECULAR ARRANGEMENT OF ACTIN AND FOR THE TREATMENT OF OSTEOPOROSIS, CANCER, BACTERIAL INFECTION AND VIRAL INFECTION” (priority 2011, published 2013)
